According to patent US7547690B2, “Compounds for the treatment of Hepatitis C” (Bristol-Myers Squibb Company, priority 2007, dated 2009):

Legend:
HCV replicon cells = test: HCV replicon FRET / luciferase assay; assay type: cell-based; details: Hepatitis C virus, 50% reduction in FRET or luciferase activity in HCV replicon cells; read-out: EC50
Description: FRET Assay Preparation. The HCV FRET screening assay was performed in 96-well cell culture plates. The FRET peptide (Anaspec, Inc.) (Taliani et al., Anal. Biochem. 1996, 240, 60-67) contains a fluorescence donor, EDANS, near one end of the peptide and an acceptor, DABCYL, near the other end. The fluorescence of the peptide is quenched by […] resonance energy transfer (RET) between the donor and the acceptor, but as the NS3 protease cleaves the peptide the products are released from RET quenching and the fluorescence of the donor becomes apparent. The assay reagent was made as follows: 5× cell Luciferase cell culture lysis reagent from Promega (#E153A) diluted to 1× with dH2O, NaCl added to 150 mM final, the FRET peptide diluted to 20 μM final from a 2 mM stock.
To prepare plates, HCV replicon cells, with or without a Renilla luciferase reporter gene, were trypsinized and plated in a 96-well plate with titrated test compounds added in columns 3 through 12; columns 1 and 2 contained a control compound (HCV control inhibitor), and the bottom row contained cells with DMSO only. The plates were then placed in a CO2 incubator at 37° C.
Assays. Subsequent to addition of the test compounds described above (FRET Assay Preparation), at various times the plate was removed and Alamar blue solution (Trek Diagnostics, #00-100) was added to measure cellular toxicity. After reading in a Cytoflour 4000 instrument (PE Biosystems), plates were rinsed with PBS and then used for FRET assay by the addition of 30 ul of the FRET peptide assay reagent described above (FRET Assay Preparation) per well. The plate was then placed into the Cytoflour 4000 instrument which had been set to 340 excite/490 emission, automatic mode for up to 20 cycles and the plate read in a kinetic mode. Typically, the signal to noise using an endpoint analysis after the reads was at least three-fold. Alternatively, after Alamar blue reading, plates were rinsed with PBS, then used for luciferase assay using the Promega Dual-Glo Luciferase Assay System or the Promega EnduRen Live Cell Substrate assay.
Compound analysis was performed by quantification of the relative HCV replicon inhibition and the relative cytotoxicity values. To calculate cytoxicity values, the average Alamar Blue fluorescence signals from the control wells were set as 100% non-toxic. The individual signals in each of the compound test wells were then divided by the average control signal and multiplied by 100% to determine […]. To calculate the HCV replicon inhibition values, an average background value was obtained from the two wells containing the highest amount of HCV control inhibitor at the end of the assay period. These numbers were similar to those obtained from naïve Huh-7 cells. The background numbers were then subtracted from the average signal obtained from the control wells and this number was used as 100% activity. The individual signals in each of the compound test wells were then divided by the averaged control values after background subtraction and multiplied by 100% to determine percent activity. EC50 values were calculated as the concentration which caused a 50% reduction in FRET or luciferase activity. The two numbers generated for the compound plate, percent cytoxicity and percent activity, were used to determine compounds of interest for further analysis.

HCV NS5B = biological target: T1, HCV NS5B (Hepatitis C virus genotype 1b, UniProt Q9WMX2); test: HCV NS5B RdRp enzyme assay (standard / modified); assay type: biochemical; details: HCV RdRp genotype 1b; standard or modified assay not specified; read-out: IC50
T1 construct: The protein was expressed with an 18 amino acid C-terminal truncation to enhance the solubility; made in house; host or cells: E. coli BL21(DE3)
Description: HCV NS5B RdRp cloning, expression, and purification. The cDNA encoding the NS5B protein of HCV, genotype 1b, was cloned into the pET21a expression vector. The protein was expressed with an 18 amino acid C-terminal truncation to enhance the solubility. The E. coli competent cell line BL21(DE3) was used for expression of the protein. Cultures were grown at 37° C. for ˜4 hours until the cultures reached an optical density of 2.0 at 600 nm. The cultures were cooled to 20° C. and induced with 1 mM IPTG. Fresh ampicillin was added to a final concentration of 50 μg/ml and the cells were grown overnight at 20° C.
Cell pellets (3 L) were lysed for purification to yield 15-24 mgs of purified NS5B. The lysis buffer consisted of 20 mM Tris-HCl, pH 7.4, 500 mM NaCl, 0.5% triton X-100, 1 mM DTT, 1 mM EDTA, 20% glycerol, 0.5 mg/ml lysozyme, 10 mM MgCl2, 15 ug/ml deoxyribonuclease I, and Complete TM protease inhibitor tablets (Roche). After addition of the lysis buffer, frozen cell pellets were resuspended using a tissue homogenizer. To reduce the viscosity of the sample, aliquots of the lysate were sonicated on ice using a microtip attached to a Branson sonicator. The sonicated lysate was centrifuged at 100,000×g for 1 hr at 4° C. and filtered through a 0.2 μm filter unit (Corning).
The protein was purified using two sequential chromatography steps: Heparin sepharose CL-6B and polyU sepharose 4B (Pharmacia). The chromatography buffers were identical to the lysis buffer but contained no lysozyme, deoxyribonuclease I, MgCl2 or protease inhibitor and the NaCl concentration of the buffer was adjusted according to the requirements for charging the protein onto the column. Each column was eluted with a NaCl gradient which varied in length from 5-50 column volumes depending on the column type. After the final chromatography step, the resulting purity of the enzyme is >90% based on SDS-PAGE analysis. The enzyme was aliquoted and stored at −80° C.
Standard HCV NS5B RdRp enzyme assay. HCV RdRp genotype 1b assays were run in a final volume of 60 μl in 96 well plates (Corning 3600). The assay buffer is composed of 20 mM Hepes, pH 7.5, 2.5 mM KCl, 2.5 mM MgCl2, 1 mM DTT, 1.6 U RNAse inhibitor (Promega N2515), 0.01 mg/ml BSA (Sigma B6917), and 2% glycerol. All compounds were serially diluted (3-fold) in DMSO and diluted further in water such that the final concentration of DMSO in the assay was 2%. HCV RdRp genotype 1b enzyme was used at a final concentration of 28 nM. A polyA template was used at 6 nM, and a biotinylated oligo-dT12 primer was used at 180 nM final concentration. Template was obtained commercially (Amersham 27-4110). Biotinylated primer was prepared by Sigma Genosys. 3H-UTP was used at 0.6 μCi (0.29 μM total UTP). Reactions were initiated by the addition of enzyme, incubated at 30 ° C. for 60 min, and stopped by adding 25 μl of 50 mM EDTA containing SPA beads (4 μg/μl, Amersham RPNQ 0007). Plates were read on a Packard Top Count NXT after >1 hr incubation at room temperature.
Modified HCV NS5B RdRp enzyme assay. A modified enzyme assay was performed essentially as described for the standard enzyme assay except for the following: The biotinylated oligo dT12 primer was precaptured on streptavidin-coated SPA beads by mixing primer and beads in assay buffer and incubating at room temperature for one hour. Unbound primer was removed after centrifugation. The primer-bound beads were resuspended in 20 mM Hepes buffer, pH 7.5 and used in the assay at final concentrations of 20 nM primer and 0.67 μg/μl beads. Order of addition in the assay: enzyme (1.75 nM) was added to diluted compound followed by the addition of a mixture of template (0.36 nM), 3H-UTP (0.6 μCi, 0.29 μM), and primer-bound beads, to initiate the reaction; concentrations given are final. Reactions were allowed to proceed for 4 hours at 30° C.
IC50 values for compounds were determined using seven different [I]. […]

T1 sequence (Q9WMX2 2420-2992): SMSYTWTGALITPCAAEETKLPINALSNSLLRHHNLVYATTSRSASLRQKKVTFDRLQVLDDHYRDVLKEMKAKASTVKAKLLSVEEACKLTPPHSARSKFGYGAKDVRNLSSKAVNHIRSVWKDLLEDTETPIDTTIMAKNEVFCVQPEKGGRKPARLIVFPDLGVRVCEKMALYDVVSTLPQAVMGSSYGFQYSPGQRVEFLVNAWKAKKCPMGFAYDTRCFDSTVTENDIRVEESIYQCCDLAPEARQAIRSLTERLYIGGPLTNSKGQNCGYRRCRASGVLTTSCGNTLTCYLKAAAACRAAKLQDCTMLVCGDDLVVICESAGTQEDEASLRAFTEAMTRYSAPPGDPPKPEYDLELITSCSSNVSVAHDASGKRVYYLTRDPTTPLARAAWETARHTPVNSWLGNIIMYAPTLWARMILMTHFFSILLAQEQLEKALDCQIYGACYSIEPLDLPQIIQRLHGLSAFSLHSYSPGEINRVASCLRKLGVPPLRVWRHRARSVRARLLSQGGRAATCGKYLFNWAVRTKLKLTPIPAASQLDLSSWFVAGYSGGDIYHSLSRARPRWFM

COc1ccc2c(c1)C1CC1(C(=O)N1[C@@H]3CNC[C@H]1C3)Cn1c-2c(C2CCCCC2)c2ccc(C(=O)NS(=O)(=O)N(C)C)cc21 (stereo partly drawn)
EC50 (HCV replicon cells): 2.4 to 500 nM | IC50 (HCV NS5B): 2.4 to 500 nM

COc1ccc2c(c1)C1CC1(C(=O)N1[C@@H]3C[C@H]1CN(C)C3)Cn1c-2c(C2CCCCC2)c2ccc(C(=O)NS(=O)(=O)N(C)C)cc21 (stereo partly drawn)
EC50 (HCV replicon cells): 2.4 to 500 nM | IC50 (HCV NS5B): 2.4 to 500 nM

COc1ccc2c(c1)C1CC1(C(=O)N1CC3CC(C1)c1cccc(=O)n1C3)Cn1c-2c(C2CCCCC2)c2ccc(C(=O)NS(=O)(=O)N(C)C)cc21 (stereo not drawn)
EC50 (HCV replicon cells): 2.4 to 500 nM | IC50 (HCV NS5B): 2.4 to 500 nM

COc1ccc2c(c1)C1CC1(C(=O)N1C3CC1CN(Cc1ccccc1)C3)Cn1c-2c(C2CCCCC2)c2ccc(C(=O)NS(=O)(=O)CC(F)(F)F)cc21 (stereo not drawn)
EC50 (HCV replicon cells): 500 to 5000 nM | IC50 (HCV NS5B): 2.4 to 500 nM

COc1ccc2c(c1)C1CC1(C(=O)N1C3CC1CN(Cc1ccccc1)C3)Cn1c-2c(C2CCCCC2)c2ccc(C(=O)NS(=O)(=O)CCC(F)(F)F)cc21 (stereo not drawn)
EC50 (HCV replicon cells): 500 to 5000 nM | IC50 (HCV NS5B): 2.4 to 500 nM

COc1ccc2c(c1)C1CC1(C(=O)N1C3CC1CN(Cc1ccccc1)C3)Cn1c-2c(C2CCCCC2)c2ccc(C(=O)NS(=O)(=O)C3CCC3)cc21 (stereo not drawn)
EC50 (HCV replicon cells): 500 to 5000 nM | IC50 (HCV NS5B): 2.4 to 500 nM

CCC(C)S(=O)(=O)NC(=O)c1ccc2c(C3CCCCC3)c3n(c2c1)CC1(C(=O)N2CC4CCC2CN4)CC1c1cc(OC)ccc1-3 (stereo not drawn)
EC50 (HCV replicon cells): 500 to 5000 nM | IC50 (HCV NS5B): 2.4 to 500 nM

COc1ccc2c(c1)C1CC1(C(=O)N1CC3CCC1CN3)Cn1c-2c(C2CCCCC2)c2ccc(C(=O)NS(=O)(=O)CC(C)C)cc21 (stereo not drawn)
EC50 (HCV replicon cells): > 1000 nM | IC50 (HCV NS5B): 2.4 to 500 nM

COc1ccc2c(c1)C1CC1(C(=O)N1CC3CCC1CN3)Cn1c-2c(C2CCCCC2)c2ccc(C(=O)NS(=O)(=O)C3CCCC3)cc21 (stereo not drawn)
EC50 (HCV replicon cells): > 1000 nM | IC50 (HCV NS5B): 2.4 to 500 nM

COc1ccc2c(c1)C1CC1(C(=O)N1CC3CCC1CN3)Cn1c-2c(C2CCCCC2)c2ccc(C(=O)NS(=O)(=O)CC(F)(F)F)cc21 (stereo not drawn)
EC50 (HCV replicon cells): > 1000 nM | IC50 (HCV NS5B): 2.4 to 500 nM

COc1ccc2c(c1)C1CC1(C(=O)N1CC3CCC1CN3)Cn1c-2c(C2CCCCC2)c2ccc(C(=O)NS(=O)(=O)CCC(F)(F)F)cc21 (stereo not drawn)
EC50 (HCV replicon cells): > 1000 nM | IC50 (HCV NS5B): 2.4 to 500 nM

COc1ccc2c(c1)C1CC1(C(=O)N1CC3CCC1CN3)Cn1c-2c(C2CCCCC2)c2ccc(C(=O)NS(=O)(=O)C3CCCCC3)cc21 (stereo not drawn)
EC50 (HCV replicon cells): > 1000 nM | IC50 (HCV NS5B): 2.4 to 500 nM

COc1ccc2c(c1)C1CC1(C(=O)N1CC3CCC1CN3)Cn1c-2c(C2CCCCC2)c2ccc(C(=O)NS(=O)(=O)C3CCC3)cc21 (stereo not drawn)
EC50 (HCV replicon cells): 2.4 to 500 nM | IC50 (HCV NS5B): 2.4 to 500 nM

COc1ccc2c(c1)C1CC1(C(=O)N1C3CC1CN(C)C3)Cn1c-2c(C2CCCCC2)c2ccc(C(=O)NS(=O)(=O)CCCF)cc21 (stereo not drawn)
EC50 (HCV replicon cells): 2.4 to 500 nM | IC50 (HCV NS5B): 2.4 to 500 nM

COc1ccc2c(c1)C1CC1(C(=O)N1C3CC1CN(C)C3)Cn1c-2c(C2CCCCC2)c2ccc(C(=O)NS(=O)(=O)CC(F)F)cc21 (stereo not drawn)
EC50 (HCV replicon cells): 2.4 to 500 nM | IC50 (HCV NS5B): 2.4 to 500 nM

COc1ccc2c(c1)C1CC1(C(=O)N1C3CC1CN(Cc1ccccc1)C3)Cn1c-2c(C2CCCCC2)c2ccc(C(=O)NS(=O)(=O)C(C)C)cc21 (stereo not drawn)
EC50 (HCV replicon cells): 2.4 to 500 nM | IC50 (HCV NS5B): 2.4 to 500 nM

COc1ccc2c(c1)[C@@H]1C[C@]1(C(=O)N1CC3CCC1CN3C)Cn1c-2c(C2CCCCC2)c2ccc(C(=O)NS(=O)(=O)N(C)C)cc21 (stereo partly drawn)
EC50 (HCV replicon cells): 2.4 to 500 nM | IC50 (HCV NS5B): 2.4 to 500 nM

COc1ccc2c(c1)[C@@H]1C[C@]1(C(=O)N1CCC3CCC(C1)N3C)Cn1c-2c(C2CCCCC2)c2ccc(C(=O)NS(=O)(=O)N(C)C)cc21 (stereo partly drawn)
EC50 (HCV replicon cells): 2.4 to 500 nM | IC50 (HCV NS5B): 2.4 to 500 nM

COc1ccc2c(c1)C1CC1(C(=O)N1CC3COCC(C1)N3)Cn1c-2c(C2CCCCC2)c2ccc(C(=O)NS(=O)(=O)N(C)C)cc21 (stereo not drawn)
EC50 (HCV replicon cells): 2.4 to 500 nM | IC50 (HCV NS5B): 2.4 to 500 nM

COc1ccc2c(c1)[C@@H]1C[C@]1(C(=O)N1C3CCCC1CN(C)C3)Cn1c-2c(C2CCCCC2)c2ccc(C(=O)NS(=O)(=O)N(C)C)cc21
EC50 (HCV replicon cells): 2.4 to 500 nM | IC50 (HCV NS5B): 2.4 to 500 nM

COc1ccc2c(c1)C1CC1(C(=O)N1CC3COCC(C1)N3C)Cn1c-2c(C2CCCCC2)c2ccc(C(=O)NS(=O)(=O)N(C)C)cc21 (stereo not drawn)
EC50 (HCV replicon cells): 2.4 to 500 nM | IC50 (HCV NS5B): 2.4 to 500 nM

COc1ccc2c(c1)[C@@H]1C[C@]1(C(=O)N1C3CCCC1C(=O)N(C)C3=O)Cn1c-2c(C2CCCCC2)c2ccc(C(=O)NS(=O)(=O)N(C)C)cc21
EC50 (HCV replicon cells): 2.4 to 500 nM | IC50 (HCV NS5B): 2.4 to 500 nM

COc1ccc2c(c1)C1CC1(C(=O)N1C3CCCC1CN(C)C3)Cn1c-2c(C2CCCCC2)c2ccc(C(=O)NS(=O)(=O)C(C)C)cc21 (stereo not drawn)
EC50 (HCV replicon cells): 2.4 to 500 nM | IC50 (HCV NS5B): 2.4 to 500 nM

COc1ccc2c(c1)C1CC1(C(=O)N1C3COCC1CN(C(C)C)C3)Cn1c-2c(C2CCCCC2)c2ccc(C(=O)NS(=O)(=O)N(C)C)cc21 (stereo not drawn)
EC50 (HCV replicon cells): 2.4 to 500 nM | IC50 (HCV NS5B): 2.4 to 500 nM
